From patent US8372885B2, “Organic compounds and their uses” (Novartis AG, priority 2008, dated 2013) come the findings set out here.

In the first assay the target is T1, P. aeruginosa LpxC (Pseudomonas aeruginosa, UniProt P47205).
T1 construct: made in house
T1 sequence (P47205 1-303): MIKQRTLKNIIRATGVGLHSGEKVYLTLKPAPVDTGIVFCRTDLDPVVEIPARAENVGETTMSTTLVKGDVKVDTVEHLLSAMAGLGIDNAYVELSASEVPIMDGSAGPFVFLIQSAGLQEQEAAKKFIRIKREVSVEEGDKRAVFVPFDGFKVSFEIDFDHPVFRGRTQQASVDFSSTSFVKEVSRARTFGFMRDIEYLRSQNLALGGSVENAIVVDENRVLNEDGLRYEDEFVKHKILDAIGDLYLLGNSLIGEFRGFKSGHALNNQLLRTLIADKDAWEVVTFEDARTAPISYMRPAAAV
Kind of assay: biochemical. The settings on record: 1 nM P. aeruginosa LpxC, 30 min pre-incubation, 2 μM UDP-3-O-(R-3-hydroxydecanoyl)-GlcNAc, pH 7.5, room temperature; read-out: IC50 (LpxC inhibitory activity). The text has this: The LC-MS/MS method for quantitation of LpxC product was developed using an Agilent 1200 Capillary HPLC system coupled to an Applied Biosystems MDS Sciex 4000QTRAP mass spectrometer. Both instruments are controlled using the Applied Biosystems MDS Sciex Analyst software. LpxC reaction product (UDP-3-O—(R-3-hydroxyacyl)-glucosamine) was produced by hydrolysis of LpxC substrate catalyzed by P. a. LpxC and purified using reversed phase chromatography on a Phenomenex Luna C18(2) 4.6×50 mm column. An LpxC product calibration curve was generated to evaluate the sensitivity and dynamic range of the LC-MS/MS method. Briefly, compounds are pre-incubated with 1 nM P. aeruginosa LpxC for 30 min. at room temperature. Reactions are initiated by the addition of 2 μM UDP-3-O—(R-3-hydroxydecanoyl)-GlcNAc. Reactions are conducted in a 96-well plate with a total volume of 100 μL in each well containing 50 mM Sodium phosphate pH 7.5, 0.005% Trition X-100 for 20 min at room temperature. After quenching with 1.8% HOAc (10 μL of a 20% HOAc added to each well), reaction mixtures are analyzed using the LC-MS/MS method and peak areas are transformed into product concentration using a LpxC product calibration curve. […] For IC50 determinations, peak areas are converted to percent inhibition in Microsoft Excel. Percent inhibition values are plotted vs. log compound concentration using XLfit. Data is fit to the four-parameter logistic equation using the non-linear regression algorithm in XLfit to return the IC50 and hill slope values.
For `CC#CCOc1ccc(C(=O)NC(C(=O)NO)C(C)(C)N)cc1C` (stereo not drawn) [Example 54], the IC50 is 16.7 nM.

For the compound `C[C@@H](N)[C@H](NC(=O)c1ccc(OCC#Cc2ccccc2)cc1)C(=O)NO` [Example 17], the 50% inhibitory concentration (IC50) worked out at 1 nM.

With `CC(C)(N)[C@H](NC(=O)c1ccc(OCC#Cc2cccc(CO)c2)cc1)C(=O)NO` [Example 77], the IC50 amounted to 0.2 nM.

Regarding `CC(C)(C)C#CCOc1ccc(C(=O)NC(C(=O)NO)C(C)(C)N)cc1` (stereo not drawn) [Example 4, N-(3-amino-1-(hydroxyamino)-3-methyl-1-oxobutan-2-yl)-4-(4,4-dimethylpent-2-ynyloxy)benzamide], the IC50 is 23 nM.

For `C=C(C)C#CCOc1ccc(C(=O)N[C@H](C(=O)NO)C(C)(C)N)cc1` [Example 43], the IC50 was 1 nM.

Turning to `COCC#CCOc1ccc(C(=O)N[C@H](C(=O)NO)[C@@H](C)N)cc1` [Example 44], the 50% inhibitory concentration (IC50) was determined as 56.9 nM.

As to `CC#CC(C)Oc1ccc(C(=O)N[C@H](C(=O)NO)[C@@H](C)N)cc1` (stereo partly drawn) [Example 31], the half-inhibitory concentration (IC50) turned out to be 141 nM.

For the compound `CC(C)(N)[C@H](NC(=O)c1ccc(OC/C=C/C#CCO)cc1)C(=O)NO` [Example 72], the IC50 was 1 nM.

For the compound `CC#CCOc1ccc(C(=O)N[C@H](C(=O)NO)C(C)(C)O)cc1` [Example 20], the IC50 was determined as 6.5 nM.

Turning to `CC#CCOc1ccc(-c2ccc(C(=O)N[C@H](C(=O)NO)C(C)(C)N)cc2)cc1` [Example 22], the IC50 came to 0.7 nM.

For the compound `CC#CCOc1ccc(C(=O)NC(C(=O)NO)C(C)(C)N)cc1OC` (stereo not drawn) [Example 39], the IC50 stood at 151 nM.

For the compound `C[C@@H](N)[C@H](NC(=O)c1ccc(C#CCOc2ccccc2)cc1)C(=O)NO` [Example 18], the IC50 turned out to be 7.6 nM.

For the compound `CC(C)(N)[C@H](NC(=O)c1ccc(OCC#CC2CC2)cc1)C(=O)NO` [Example 38], the IC50 is 0.4 nM.

For the compound `CC(C)(N)[C@H](NC(=O)c1ccc(OCC#CC2=CCNCC2)cc1)C(=O)NO` [Example 62], the 50% inhibitory concentration (IC50) was found to be 14 nM.

`C[C@@H](N)[C@H](NC(=O)c1ccc(OCCCC#Cc2ccccc2)cc1)C(=O)NO` [Example 30]: the IC50 worked out at 35.6 nM.

`CC(C)(N)[C@H](NC(=O)c1ccc(OCC#Cc2ccccn2)cc1)C(=O)NO` [Example 79]: the IC50 is 1 nM.

For the compound `C#C/C=C/COc1ccc(C(=O)N[C@H](C(=O)NO)[C@@H](C)N)cc1` [Example 46], the IC50 came out at 5.5 nM.

On to `COc1cccc(C#CCOc2ccc(C(=O)N[C@H](C(=O)NO)C(C)(C)N)cc2)c1` [Example 70], for which the IC50 is 2 nM.

Consider `CC#CCOc1ccc(C(=O)N[C@H](C(=O)NO)[C@@H](C)N)c(F)c1` [Example 9, N-((1S,2R)-2-Amino-1-hydroxycarbamoyl-propyl)-4-but-2-ynyloxy-2-fluoro-benzamide], for which the IC50 was found to be 74.5 nM.

For the compound `CC(C)=CCC/C(C)=C/COc1ccc(C(=O)N[C@H](C(=O)NO)[C@@H](C)N)cc1` [Example 48], the IC50 amounted to 10.2 nM.

Consider `CC(C)(N)[C@H](NC(=O)c1ccc(OC/C=C/C#CCCO)cc1)C(=O)NO` [Example 15, N-((S)-2-Amino-1-hydroxycarbamoyl-2-methyl-propyl)-4-((E)-7-hydroxy-hept-2-en-4-ynyloxy)-benzamide], for which the IC50 came out at 2 nM.

`CCCCOc1ccc(C(=O)N[C@H](C(=O)NO)C(C)(C)N)cc1` [Example 37]: the IC50 is 4 nM.

In the case of `CC#CCOc1ccc(C(=O)NC(C(=O)NO)C(C)(C)N)cc1Cl` (stereo not drawn) [Example 55], the half-maximal inhibitory concentration (IC50) came to 9.9 nM.

Take `CC(C)(O)C#CCOc1ccc(C(=O)NC(C(=O)NO)C(C)(C)N)cc1` (stereo not drawn) [Example 8, N-(3-amino-1-(hydroxyamino)-3-methyl-1-oxobutan-2-yl)-4-(4-hydroxy-4-methylpent-2-ynyloxy)benzamide]: the IC50 is 183 nM.

Turning to `CC#CCOc1ccc(C(=O)N[C@@H](CCCN)C(=O)NO)cc1` [Example 10, N-((S)-4-Amino-1-hydroxycarbamoyl-butyl)-4-but-2-ynyloxy-benzamide], the IC50 came to 2700 nM.

In the case of `C[C@@H](N)[C@H](NC(=O)c1ccc(OCCCC2CC2)cc1)C(=O)NO` [Example 50], the half-inhibitory concentration (IC50) came out at 13.1 nM.

With `CC(C)(N)[C@H](NC(=O)c1ccc(OCC#CC2=CCCC2)cc1)C(=O)NO` [Example 11, N-((S)-2-Amino-1-hydroxycarbamoyl-2-methyl-propyl)-4-(3-cyclopent-1-enyl-prop-2-ynyloxy)-benzamide], the IC50 amounted to 1 nM.

As for `C[C@@H](N)[C@H](NC(=O)c1ccc(OCC#Cc2ccoc2)cc1)C(=O)NO` [Example 61], the IC50 amounted to 3 nM.

For `CC(C)C#CCOc1ccc(C(=O)N[C@H](C(=O)NO)C(C)(C)N)cc1` [Example 53], the IC50 stood at 5.5 nM.

Consider `CC#CCOC1CCC(C(=O)N[C@H](C(=O)NO)[C@@H](C)N)CC1` (single isomer, unassigned) [Example 7], for which the IC50 was 380 nM.

Consider `C[C@@H](N)[C@H](NC(=O)c1ccc(OCC#CC2CC2)cc1)C(=O)NO` [Example 34], for which the IC50 stood at 6 nM.

As for `CC#CC(C)Oc1ccc(C(=O)N[C@H](C(=O)NO)[C@@H](C)N)cc1` (stereo partly drawn) [Example 32], the concentration for half-maximal inhibition (IC50) was 231 nM.

With `COCC#C/C=C/COc1ccc(C(=O)N[C@H](C(=O)NO)C(C)(C)N)cc1` [Example 71], the 50% inhibitory concentration (IC50) came out at 1 nM.

In the case of `CC(C)(N)C(NC(=O)c1ccc(OCC#CC2CCCC2)cc1)C(=O)NO` (stereo not drawn) [Example 45], the IC50 worked out at 2.2 nM.

Take `CC#CCOc1ccc(C(=O)NC(C(=O)NO)C(C)(C)N)c(F)c1F` (stereo not drawn) [Example 36]: the IC50 worked out at 15.9 nM.

Take `CC#CCOc1c(F)cc(C(=O)NC(C(=O)NO)C(C)(C)N)cc1F` (stereo not drawn) [Example 56]: the half-inhibitory concentration (IC50) came to 4.1 nM.

Regarding `CC#CC(C)(C)Oc1ccc(C(=O)N[C@H](C(=O)NO)[C@@H](C)N)cc1` [Example 27], the half-maximal inhibitory concentration (IC50) was determined as 73.3 nM.

Regarding `CC#CCNc1ccc(C(=O)N[C@H](C(=O)NO)[C@@H](C)N)cc1` [Example 42], the IC50 turned out to be 27.3 nM.

As for `C/C=C/COc1ccc(C(=O)N[C@H](C(=O)NO)[C@@H](C)N)cc1` [Example 57], the half-inhibitory concentration (IC50) stood at 30 nM.

Turning to `CCCCC#C/C=C/COc1ccc(C(=O)N[C@H](C(=O)NO)C(C)(C)N)cc1` [Example 64], the 50% inhibitory concentration (IC50) turned out to be 0.2 nM.

Turning to `COc1ccc(C#CCOc2ccc(C(=O)N[C@H](C(=O)NO)C(C)(C)N)cc2)cc1` [Example 69], the half-maximal inhibitory concentration (IC50) was 413 nM.

On to `CC(C)(C)C#C/C=C/COc1ccc(C(=O)N[C@H](C(=O)NO)C(C)(C)N)cc1` [Example 63], for which the IC50 stood at 0.05 nM.

On to `C[C@@H](N)[C@H](NC(=O)c1ccc(OCCC2CC2)cc1)C(=O)NO` [Example 49], for which the IC50 was 24.6 nM.

`CC#CCOc1c(Cl)cc(C(=O)NC(C(=O)NO)C(C)(C)N)cc1Cl` (stereo not drawn) [Example 40]: the half-inhibitory concentration (IC50) came out at 34.6 nM.

Still in this assay, the particulars now being: IC50 (LpxC inhibitory activity), 1 nM P. aeruginosa LpxC, 30 min pre-incubation, 2 μM UDP-3-O-(R-3-hydroxydecanoyl)-GlcNAc, pH 7.5, room temperature.
Compound `CC#CCOc1ccc(C(=O)N[C@H](C(=O)NO)[C@@H](C)N)cc1` [Example 16] returned a half-maximal inhibitory concentration (IC50) of 8.7 nM.

With `CC#CCOc1ccc(C(=O)N[C@H](C(=O)NO)[C@H](N)C(C)C)cc1` [Example 33], the half-inhibitory concentration (IC50) worked out at 268 nM.

As for `CC#CCOc1ccc(C(=O)N[C@@H](C(=O)NO)[C@@H](N)C(C)C)cc1` [Example 26], the midpoint of inhibition, the IC50, lay at 70 nM.

As to `CC#CCOc1ccc(C(=O)N[C@H](C(=O)NO)[C@H](N)C2CC2)cc1` [Example 5, N-((1R,2S)-1-amino-1-cyclopropyl-3-(hydroxyamino)-3-oxopropan-2-yl)-4-(but-2-ynyloxy)benzamide], 124 nM corresponded to half-maximal inhibition (IC50).

Usually IC50 stands for the concentration at which inhibition is half-maximal.
